Laboratory results taken from patent US4738954A, “Novel N^6 -substituted-5'-oxidized adenosine analogs” (Warner-Lambert Company, priority 1985, dated 1988).

Tests used:
[1] = test system: mice falling off the inverted screen; assay: Mouse Activity and Screen Test Procedure (MAST): screen test; assay type: in vivo, Swiss-Webster male mice
Description: The compounds of the invention are new chemical substances which are useful as pharmaceutical agents for the treatment of psychoses. The antipsychotic activity of representative compounds of the invention was established by the Mouse Activity and Screen Test Procedure (MAST) described below. Animals Nine unfasted Swiss-Webster male mice weighing 20-30 g are equally divided into three groups for each drug dose to be tested. That is, data for each dose level was generated by three separate groups of three mice each. Drugs A minimum of three dose levels (10, 30, and 100 mg/kg) are tested for each drug. Treatments are administered intraperitoneally one hour prior to testing. All dosages are calculated as parent compound and given in volumes of 10 ml/kg. Compounds are dissolved or suspended in 0.2% Methocel. Control animals are injected with Methocel. Testing: A two part testing procedure is started one hour postinjection. First, the screen test (ST) is performed (see Pharmac. Biochem. Behav. 6, 351-353, 1977). Briefly this test consists of placing mice on individual wire screens which are then rotated 180 degrees at the start of a 60 second observation period. The number of mice falling off the inverted screen is recorded. Data: The data obtained from the screen test are expressed as percent of mice falling off the screen. Data derived from locomotor activity of drug treated mice are compared to the activity of vehicle treated animals and are expressed as percent inhibition of spontaneous locomotion. All percentages reported for inhibition of locomotion (LI) are based upon data accumulated for one hour. Both phases of testing are graded: A=60-100%; C=31-59%; and N=0-30%. An overall dose rating is obtained by the following criteria: LAD refers to the lowest dose at which an A rating is achieved. […] Utilizing this procedure, an overall dose rating of A was obtained for the noted compound at the indicated dose. The compounds are identified in the Examples.

[2] = test system: platelets (ADP-induced aggregation); assay: Antithrombocyte aggregation test in vitro (ATA-8), ADP-induced, whole blood; assay type: cell-based, human (Community Research Clinic volunteers); details: Homo sapiens, Platelet
Procedure: (§1) ANTITHROMBOCYTE AGGREGATION TEST-IN VITRO (ATA-8)
Blood is collected from Community Research Clinic volunteers who have not ingested aspirin or other non-steroidol antiinflammatory drugs within the preceeding two weeks and have not eaten within the nine hours before blood draw. Blood is taken in 4.5 ml portions in Vacutainer No. 6462S silicone-coated tubes or equivalent containing 0.5 ml of 3.8% trisodium citrate. Usually six or eight portions of 4.5 ml are drawn from each volunteer. […] The pooled blood is put in 50 ml polyethylene tubes and centrifuged at 80×g (ca 600 rpm) for 20 min in an International Model K centrifuge at room temperature. […]
Addition of drug solution or saline (0.02 ml) is followed in 5 min by addition of aggregating agent (ADP or collagen suspension, 0.02 ml). Extent of aggregation, using ADP stimulus, or rate of aggregation, using collagen stimulus, is determined using the Payton Scientific Dual Channel Aggregation Module, Model 300B. Appropriate concentrations of ADP or collagen are determined by an initial brief titration.
The height in millimeters of aggregation curves for control aggregations (no drug addition, saline only) are compared with the heights of curves obtained after drug addition at various appropriate concentrations. Heights after drug addition are finally expressed as "percent of control" values. […]

[3] = test system: platelets (collagen-induced aggregation); assay: Antithrombocyte aggregation test in vitro (ATA-8), collagen-induced, platelet rich plasma; assay type: cell-based, human (Community Research Clinic volunteers); details: Homo sapiens
Procedure: as §1
(§2) Source and Preparation of Platelet Suspensions
Blood is collected from Community Research Clinic volunteers who have not ingested aspirin or other non-steroidol antiinflammatory drugs within the preceeding two weeks and have not eaten within the nine hours before blood draw. Blood is taken in 4.5 ml portions in Vacutainer No. 6462S silicone-coated tubes or equivalent containing 0.5 ml of 3.8% trisodium citrate. Usually six or eight portions of 4.5 ml are drawn from each volunteer. The blood collected from three or four volunteers is pooled prior to centrifugation. […] The platelet count of the PRP is determined with a Coulter Thromobocounter. […]
(§3) Platelet-rich plasma adjusted to 250,000 platelets per microliter is distributed in 0.36 ml aliquots into silicone-coated cuvettes of 0.312 inch diameter. […] Extent of aggregation, using ADP stimulus, or rate of aggregation, using collagen stimulus, is determined using the Payton Scientific Dual Channel Aggregation Module, Model 300B. Appropriate concentrations of ADP or collagen are determined by an initial brief titration. […]
The major slope (that is, the slope of the first straight line portion) of the collagen-induced aggregation curve for each drug concentration is determined and compared to the slope of the curve for control aggregations. […]

[4] = test system: platelets (ADP-induced aggregation); assay: Antithrombocyte aggregation test in vitro (ATA-8), ADP-induced, platelet rich plasma; assay type: cell-based, human (Community Research Clinic volunteers); details: Homo sapiens
Procedure: as §1, §2
Blood is collected from Community Research Clinic volunteers who have not ingested aspirin or other non-steroidol antiinflammatory drugs within the preceeding two weeks and have not eaten within the nine hours before blood draw. Blood is taken in 4.5 ml portions in Vacutainer No. 6462S silicone-coated tubes or equivalent containing 0.5 ml of 3.8% trisodium citrate. Usually six or eight portions of 4.5 ml are drawn from each volunteer. The blood collected from three or four volunteers is pooled prior to centrifugation. The pooled blood is put in 50 ml polyethylene tubes and centrifuged at 80×g (ca 600 rpm) for 20 min in an International Model K centrifuge at room temperature. […] The platelet count of the PRP is determined with a Coulter Thromobocounter. […]
as §3

| SMILES | Screen test failure ([1]; 0.03 mg/kg IP) [%] | Screen test failure ([1]; 0.1 mg/kg IP) [%] | Screen test failure ([1]; 0.3 mg/kg IP) [%] | Screen test failure ([1]; 1 mg/kg IP) [%] | Screen test failure ([1]; 3 mg/kg IP) [%] | Screen test failure ([1]; 10 mg/kg IP) [%] | Screen test failure ([1]; 30 mg/kg IP) [%] | IC50 [2] [nM] | IC50 [3] [nM] | Screen test failure ([1]; 0.01 mg/kg IP) [%] | IC50 [4] [nM] |
| --- | --- | --- | --- | --- | --- | --- | --- | --- | --- | --- | --- |
| CCNC(=O)[C@H]1O[C@@H](n2cnc3c(NCc4cccc5ccccc45)ncnc32)[C@H](O)[C@@H]1O [Example 6, N-6-Naphthylmethyladenosine-5'-ethylcarboxamide] | 0 | 0 | 0 | 11 | 11 | 0 | – | – | – | – | – |
| CCOC(=O)[C@H]1O[C@@H](n2cnc3c(NCC(c4ccccc4)c4ccccc4)ncnc32)[C@H](O)[C@@H]1O [Example 5, N6-(2,2-diphenylethyl)-5-adenosine-5'-ethylcarboxylate] | – | – | – | – | 11 | 0 | 0 | – | – | – | – |
| CCNC(=O)[C@H]1O[C@@H](n2cnc3c(NCC(c4ccccc4)c4ccccc4)ncnc32)[C@H](O)[C@@H]1O [Example 3, N^6-(2,2-diphenylethyl)-adenosine-5'-ethylcarboxamide] | – | 0 | 0 | 0 | 0 | 11 | 33 | – | – | – | – |
| CCNC(=O)[C@H]1O[C@@H](n2cnc3c(N[C@H](C)Cc4ccccc4)ncnc32)[C@H](O)[C@@H]1O [Example 1, (R)-N-6-[(2-phenyl-1-methyl)ethyl]-adenosine-5'-ethylcarboxamide] | 0 | 33 | 11 | 33 | 88 | 100 | 100 | 0.7 | 200 | 0 | 600 |
